{"source": "patent US12319752B2", "about": "“Heparin-binding cationic peptide self-assembling peptide amphiphiles useful against drug-resistant bacteria” (priority 2016, dated 2025)", "key": {"MRSA": {"test_system": "MRSA", "assay": "Live/dead bacterial viability assay", "type": "cell-based, methicillin-resistant S. aureus (MRSA)", "conditions": "4 h", "text": "To further investigate bacteria viability after treatment with ACA-PA, the live/dead assay was used to confirm the antibacterial actions of ACA-PA. Dead bacteria with disrupted membrane were stained a first color, whereas live bacteria were stained with a second color fluorescence. A large amount of robust MRSA bacteria in the untreated control sample appeared a second color and in spherical shapes (FIG. 10A). […] This antibacterial activity was dependent on the concentration of PA, yet was not determined by peptide self-assembly. Nonetheless, Gram-negative MDR E. coli responded to the treatment of ACA-PA differently from Gram-positive MRSA.\nThe live/dead bacterial viability assay was conducted to further assess the bactericidal efficacy of ACA-PA using the LIVE/DEAD BacLight Bacterial Viability Kits (Kits 71007, Molecular Probes, Eugene, OR, USA). MRSA and MDR E. coli bacteria (100 μl, 10^6 CFU/mL) were incubated with 80 μM and 40 μM of peptide in 3% TSB media at 37° C. for 4 h on a 96-well plate, and the control samples of bacteria were incubated in 3% TSB media only. […] The live bacteria stained fluorescent a second color (SYTO9 nucleic acid stain), whereas the dead bacteria with disrupted membranes stained fluorescent a first color (propidium iodide, PI)."}, "[1]": {"test_system": "LPS (from Escherichia coli O111:B4)", "assay": "LPS binding, BODIPY TR cadaverine (BC) probe displacement assay", "conditions": "20 μM to 100 μM peptide, 100 μg/mL LPS", "procedure": "The binding of each peptide at various concentrations to LPS was determined by the capability of displacing the BC probes bound with LPS. The fluorescent BC probe was used as a probe to determine the level of peptide bound with LPS. BC probe binds to native LPS and particularly target the lipid A portion. The fluorescent intensity of BC probe decreases as it binds to LPS. […] For instance, the LPS binding factor of samples containing 60 μM of CVK-PA was as double as the 40 μM sample.\nThe LPS binding affinity of peptide was examined with the BODIPY TR cadaverine (BC) fluorescent probe displacement assay as previously described. Stock solution of each peptide was diluted to predetermined concentrations with 10 mM HEPES buffer (pH=7.5, Thermo Fisher Scientific, Waltham, MA, USA). […] Followed by incubation for 15 minutes in room temperature, the fluorescent intensity was measured using a spectrophotometer at an excitation wavelength of 580 nm and an emission wavelength of 620 nm. Finally, the LPS binding factor of each sample was calculated using the equation: […]\nWhen peptides bind to LPS and displace the BC probe, fluorescence intensity of the probe is increased. LPS binding affinity of each peptide was then analyzed by the fluorescent intensity of the displaced BC probe. […]"}, "MDR E. coli": {"test_system": "MDR E. coli", "assay": "Bacterial membrane disruption by TEM of ultrathin sections", "type": "cell-based, multidrug-resistant E. coli (MDR E. coli)", "conditions": "4 h", "procedure": "TEM was used to reveal the damage in bacterial cell envelopes caused by ACA-PA treatment. Drug-resistant bacterial strains (MRSA and MDR E. coli) were exposed to ACA-PA at concentrations below (40 μM) and above (80 μM) the CMC, and ultrathin sections of the bacterial cultures were visualized by TEM.\nThe ACA-PA at a concentration lower than CMC seemed to only influenced the outer bacteria membrane, but were inadequate to disrupt the inner bacteria membranes.\nBacterial membrane disruption was observed from the ultrathin sectioned sample using TEM. […] After treatment with 80 μM ACA nanorods, bacterial cell membranes were severely damaged with complete cytoplasm leakage. […] On the damaged membranes, blisters appeared to originate from the pores. This explains the reason for the different antibacterial activity of ACA-PA on Gram-negative bacteria compared to the concentration-dependent toxicity on Gram-positive bacteria. The cell envelope of Gram-positive has a cytoplasmic membrane surrounded by a thick peptidoglycan layer with lipoteichoic acid. The antibacterial ACA-PA could penetrate the Gram-positive bacterial membrane by charge and hydrophobicity, although the PA were in a dispersed, non-assembled form. However, such dispersed PA were not able to penetrate the outer membrane of Gram-negative bacteria. […]"}}, "note": "Residues, ends and D or L forms follow the SMILES beside them. *: point of attachment. Palmitoyl = CCCCCCCCCCCCCCCC(=O)*"}
{"compound": "CCCCCCCCCCCCCCCC(=O)N[C@H](C(=O)N[C@H](C(=O)N[C@H](C(=O)N[C@H](C(=O)N[C@@H](CCCCN)C(=O)N[C@@H](CCCCN)C(=O)N[C@@H](CCCCN)C(=O)N[C@@H](CCCCN)C(=O)NCC(=O)N[C@@H](C)C(=O)N[C@@H](CCCCN)C(=O)N[C@@H](CCCCN)C(=O)N[C@@H](C)C(=O)N[C@@H](CCCNC(=N)N)C(=O)N[C@@H](C)C(=O)N[C@@H](C)C(=O)N[C@@H](CCCCN)C(=O)N[C@@H](CCCCN)C(=O)N[C@@H](C)C(=O)N[C@@H](CCCNC(=N)N)C(=O)N[C@@H](C)C(=O)O)C(C)C)C(C)C)C(C)C)C(C)C", "note": "[ACA-PA, C16-V4K4G(AKKARA)2 (SEQ ID NO: 7)] (Palmitoyl-VVVVKKKKGAKKARAAKKARA-OH; N-terminus and C-terminus assumed)", "values": [{"measurement": "bacterial viability (live/dead staining)", "setting": "MRSA; 40 μM", "value": "markedly reduced MRSA viability"}, {"measurement": "bacterial viability (live/dead staining)", "setting": "MRSA; 80 μM", "value": "coverage of dead bacteria increased with low density of live bacteria"}, {"measurement": "LPS binding factor", "setting": "[1]", "value": "highest LPS binding capability among the peptides investigated"}, {"measurement": "bacterial membrane disruption (TEM)", "setting": "MDR E. coli; 40 μM", "value": "blisters only on the outer cell walls"}, {"measurement": "bacterial membrane disruption (TEM)", "setting": "MDR E. coli; 80 μM", "value": "disrupted bacteria envelopes with loosened and disconnected membranous structures"}]}
